Laboratory results from US20170368034A1, “THIOTRIAZOLE COMPOUND AND ITS USE IN PARASITIC PROTOZOAL INFECTIONS” (GlaxoSmithKline Intellectual Property Development Limited, priority 2014, published 2017).
≈ marks a conversion by molar mass, not a printed value. Like-named read-outs stand apart in the source and are kept apart here. Blank lines part the entries; values can stand above or below the molecule they belong to.

Columns and labels:
[1] = p698 and Table 2 p699; cited from earlier work
[2] = test system: P. falciparum infected erythrocytes; assay: P. falciparum growth inhibition assay ([3H]hypoxanthine incorporation); type: cell-based; settings: Plasmodium falciparum, Erythrocyte, 0.5% parasitemia (ring stage), 2% hematocrit, 48 h total incubation, read-out: PflC50
Method: P. falciparum Growth Inhibition Assay. The sensitivity of P. falciparum infected erythrocytes to the compound is determined in triplicate using the [^3H]hypoxanthine incorporation method with an inoculum of 0.5% parasitemia (ring stage) and 2% hematocrit. The parasites were grown in RPMI 1640, 25 mM HEPES and supplemented with […]. Plates are incubated at 37° C., 5% CO2, 5% O2, 90% N2. After 24 h of incubation, [3H]hypoxanthine is added and plates are incubated for another 24 h. After that period, plates are harvested on a glass fiber filter using a TOMTEC Cell harvester 96. Filters are dried and melt on scintillator sheets and the bound radioactivity is quantified by use of a Wallac Microbeta Trilux (Model 1450 LS-Perkin Elmer). IC50s are determined using Grafit 5 program (Grafit program; Erithacus Software, Horley, Surrey, United Kingdom).

[3] = test system: P. falciparum; assay: P. falciparum in vivo efficacy assay (P. falciparum mouse model); parameters: species or system Plasmodium falciparum; settings: for AUCED90: area under the concentration-time curve at ED90, P. falciparum mouse model; for ED90: dose that eradicates 90 per cent of parasitemia, NOD-scid IL2R_null mice engrafted with human erythrocytes
Method: P. Falciparum In Vivo Efficacy Assay.
Antimalarial in vivo efficacy was determined using the P. falciparum mouse model following the procedure described in: Jimenez-Diaz, M. B., Mulet, T., Viera, S., Gómez, V., Garuti, H., Ibañez, J., Alvarez-Doval, A., Shlutz, D. L., Martinez, A., Improved Murine Model Of Malaria Using Plasmodium falciparum (Competent Strains and Non-Myelodepleted NOD-scid IL2R_null
Mice Engrafted with Human Erythrocytes) Antimicrob. Agents Chemother 2009, 53 (10), 4533-4536

[4] = Equilibrium solubility assessment in biorelevant media; type: physicochemical; settings: thermodynamic from solid, room temperature
Method: Compound's equilibrium solubility was measured at 4 h room temperature in four biologically relevant fluids: Fasted State-(Simulated Intestinal Fluid (FaSSIF), Fed State Simulated IntestinalFluid (FeSSIF), Simulated Gastric Fluid (SGF) and Phosphate Buffered Saline (PBS).
Organic solvents of HPLC grade were used. Ultra pure water (Milli-Q grade) was used. Buffers were prepared with ultra pure water and filtered using 0.45 μ nylon filters.
Determination of equilibrium solubility (assuming chemical stability in the desired solvent is not a problem).
a) 1 mg of solid compound was weighted in one 4 mL glass vial and 1 mL of the corresponding medium freshly prepared (SGF, FaSSIF, FeSSIF or PBS) was added. All these samples were prepared by duplicate.
b) The samples were stirred (roller mixer) for 4 hr at room temperature. If required, additional solid compound (0.1 mg) was added to maintain excess of it (saturated solutions).
c) After 4 hours, the samples were centrifuged (10000 rpm, 10 min.) and the supernatants were transfer to an HPLC vial and analysed by LC-MS (previous dilution with mobile phase when needed).
d) The pH of the final solution in each sample was measured with a pH-meter (WTW pH330i and a pH-electrode Sentix 41).
All supernatants were analysed by LC-MS. Quantification of those samples was carried out against calibration curves obtained from 1 mg/mL DMSO (Aldrich cat. ref.: 27685-5) stock solutions, by dilution with the mobile phase used in the chromatography. Depending on the solubility range, U.V. (1 μg/mL to 100 μg/mL) or MS (1 μg/mL to 1 ng/mL) detector were used in the quantification.
The analysis of all LC-MS data was performed with MassLynx 3.4 software and Analyst 1.4.2. Statistical and graphic analysis of data was performed using Microsoft Excel. The concentration (μM) and solubility (μg/ml) for each compound was calculated using the peak areas from the sample and those from the calibration curve.

[5] = FaSSIF (fasted state simulated intestinal fluid), fassif, Fasted state simulated intestinal fluid, read-out: FaSSIF solubility
[6] = FeSSIF (fed state simulated intestinal fluid), fessif, Fed state simulated intestinal fluid, read-out: FeSSIF solubility
[7] = PBS (phosphate buffered saline), aqueous buffer, Phosphate buffered saline, read-out: PBS solubility
[8] = SGF (simulated gastric fluid), Simulated gastric fluid, read-out: SGF solubility

- IC50 [2]: 52 nM
SMILES: CC(Sc1nc(-c2c(Cl)cncc2Cl)n[nH]1)C(=O)c1c[nH]c2ccccc12 (stereo not drawn) [drawing 20]

- IC50 [2]: 19 to 53 nM
SMILES: C[C@@H](Sc1nc(-c2c(Cl)cncc2Cl)n[nH]1)C(=O)c1c[nH]c2ccccc12 [drawing 21]

- solubility at 4 h [4, 5]: 37 µg/mL (≈ 83.8 µM)
- solubility at 4 h [4, 6]: 181 µg/mL (≈ 410 µM)
- solubility at 4 h [4, 7]: < 0.1 µg/mL
- solubility at 4 h [4, 8]: < 0.1 µg/mL
SMILES: Cc1[nH]c2ccccc2c1C(=O)C(C)Sc1nnc(-c2ccccc2Br)[nH]1 (stereo not drawn) [drawing 25]

- solubility at 4 h [4, 5]: 168 µg/mL (≈ 402 µM)
SMILES: CC(Sc1nc(-c2c(Cl)cncc2Cl)n[nH]1)C(=O)c1c[nH]c2ccccc12 (stereo not drawn) [drawing 26]

- solubility at 4 h [4, 5]: 216 µg/mL (≈ 516 µM)
- solubility at 4 h [4, 6]: 578 to 675 µg/mL (≈ 1380 to 1610 µM)
- solubility at 4 h [4, 7]: 169 to 289 µg/mL (≈ 404 to 691 µM)
- solubility at 4 h [4, 8]: 15 to 76 µg/mL (≈ 35.9 to 182 µM)
SMILES: C[C@@H](Sc1nc(-c2c(Cl)cncc2Cl)n[nH]1)C(=O)c1c[nH]c2ccccc12 [drawing 27]

Further lines, the molecule ahead of its results:

SMILES: O=C(CSc1nc(-c2ccncc2)n[nH]1)c1c[nH]c2ccccc12 [Compound 32]
- activity in the assays of Shah et al. [1]: inactive

SMILES: O=C(CSc1nc(-c2ccncc2)n[nH]1)c1c[nH]c2ccccc12 [drawing 18]
- IC50 [2]: > 5000 nM

SMILES: Cc1[nH]c2ccccc2c1C(=O)C(C)Sc1nnc(-c2ccccc2Br)[nH]1 (stereo not drawn) [drawing 19]
- IC50 [2]: 44 to 60 nM

SMILES: Cc1[nH]c2ccccc2c1C(=O)C(C)Sc1nnc(-c2ccccc2Br)[nH]1 (stereo not drawn) [drawing 22]
- AUCED90 [3]: < 0.05 μg.h.ml-1day-1
- ED90 [3]: 7.31 mg/kg

SMILES: C[C@@H](Sc1nc(-c2c(Cl)cncc2Cl)n[nH]1)C(=O)c1c[nH]c2ccccc12 [drawing 24]
- AUCED90 [3]: 0.17 μg.h.ml-1day-1
- ED90 [3]: 2.2 mg/kg
